Article PMC6757289, “Design and Characterization of SGK3-PROTAC1, an Isoform Specific SGK3 Kinase PROTAC Degrader” (ACS Chemical Biology, 2019)
Where two headings read alike, the source gives them in different places.

Legend:
[1] = molecular target: S6K1 (Homo sapiens, UniProt P23443, T412E); assay: IC50 determination, biochemical kinase assay; settings: for IC50: not in the presence of VHL
Protocol: (§1) IC50 determination was performed at the MRC PPU International Centre for Protein Kinase Profiling, according to the protocol previously described[47],[48]

[2] = molecular target: T1, SGK3 (Homo sapiens, UniProt Q96BR1); assay: IC50 determination, biochemical kinase assay; settings: not in the presence of VHL
T1 sequence (Q96BR1 1-496): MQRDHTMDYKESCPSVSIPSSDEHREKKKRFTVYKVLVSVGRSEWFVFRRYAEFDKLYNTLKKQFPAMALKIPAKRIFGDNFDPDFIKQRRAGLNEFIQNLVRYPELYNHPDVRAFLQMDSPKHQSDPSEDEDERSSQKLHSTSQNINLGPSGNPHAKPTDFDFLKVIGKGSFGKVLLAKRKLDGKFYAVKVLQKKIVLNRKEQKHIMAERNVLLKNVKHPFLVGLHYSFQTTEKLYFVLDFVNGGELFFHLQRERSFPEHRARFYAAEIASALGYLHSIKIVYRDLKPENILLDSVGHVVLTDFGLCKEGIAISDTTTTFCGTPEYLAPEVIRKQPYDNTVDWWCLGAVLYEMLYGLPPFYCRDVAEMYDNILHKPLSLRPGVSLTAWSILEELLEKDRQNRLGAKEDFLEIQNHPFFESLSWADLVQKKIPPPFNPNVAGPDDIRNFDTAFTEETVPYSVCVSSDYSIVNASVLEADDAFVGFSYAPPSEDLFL
Protocol: as §1

[3] = molecular target: T2, SGK1 (Homo sapiens, UniProt O00141, S422D); assay: IC50 determination, biochemical kinase assay; settings: not in the presence of VHL
T2 sequence (O00141 60-431 S422D limits assumed): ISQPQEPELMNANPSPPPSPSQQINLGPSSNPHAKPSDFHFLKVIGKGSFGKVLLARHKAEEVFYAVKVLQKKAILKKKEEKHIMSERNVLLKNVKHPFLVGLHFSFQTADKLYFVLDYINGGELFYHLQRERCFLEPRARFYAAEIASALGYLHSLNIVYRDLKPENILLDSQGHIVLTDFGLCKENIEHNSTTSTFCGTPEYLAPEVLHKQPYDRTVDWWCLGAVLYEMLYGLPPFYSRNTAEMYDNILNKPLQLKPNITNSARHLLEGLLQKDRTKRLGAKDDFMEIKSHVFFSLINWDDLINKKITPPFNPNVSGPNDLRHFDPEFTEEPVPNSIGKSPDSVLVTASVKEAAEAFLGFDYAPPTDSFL

[4] = molecular target: MLK3 (Homo sapiens, UniProt Q16584); assay: kinase profiling panel; type: biochemical; settings: read-out: % Activity Remaining
Source text: Protein kinase profiling against a Dundee panel of 140 protein kinases was undertaken at the International Centre for Protein Kinase Profiling. The result for each kinase was presented as a mean kinase activity of the reaction taken in triplicate relative to a control sample treated with DMSO. Assay conditions and abbreviations are available at http://www.kinase-screen.mrc.ac.uk.

[5] = test system: phosphorylation of NDRG1 at Thr346; assay: NDRG1 phosphorylation in HEK293 cells, immunoblot; type: cell-based; settings: HEK293, 8 h; for pNDRG1 phosphorylation: basal, no inhibition of Akt
Protocol: Figure 3 Characterization of cellular activities of SGK3-PROTAC1 and cisSGK3-PROTAC1. (A) HEK293 cells were first treated for 8 h with 0.03–3 μM SGK3-PROTAC1 and cisSGK3-PROTAC1. One hour before lysis, cells were treated with 3 μM AZD5363. Lysates were subjected to immunoblot analysis with the indicated antibodies. […] Lysates were subjected to immunoblot analysis with the indicated antibodies. (C) HEK293 cells were treated for up to 48 h with SGK3-PROTAC1 (0.3 μM), and lysates were analyzed by immunoblot analysis using the indicated antibodies. (D) HEK293 cells were treated for 24 h with SGK3-PROTAC1. Cells were washed three times with DMEM to wash out the compound, and recovery of SGK3 expression protein was analyzed by immunoblot analysis. (E–G) As in A except that CAMA-1 (E), ZR-75-1 (F), and JIMT-1 (G) cells were employed rather than HEK293 cells.
To study the impact of SGK3-PROTAC1 on phosphorylation of a physiological substrate, we monitored phosphorylation of NDRG1 at Thr346.[37] This site is also phosphorylated by Akt; therefore we treated cells with increasing doses of SGK3-PROTAC1 and cisSGK3-PROTAC1 for 8 h, with the addition of an Akt inhibitor (3 μM AZD5363) 1 h before lysis, to remove the impact of Akt phosphorylation of NDRG1. […] Concentrations of cisSGK3-PROTAC1 of above 1 μM were required to lower NDRG1 phosphorylation. […] This is consistent with previous work in HEK293 cells showing that inhibition of both Akt and SGK3 is required to block NDRG1 phosphorylation.[8],[37]
All cell treatments were carried out as described in figure legends, to a final DMSO concentration of 0.1% (v/v). Lysates were quantified. Immunoblotting was performed using standard procedures, described in brief below. Lysate concentration was quantified by Bradford Assay, and 10 μg of lysate was loaded in the LDS sample buffer for SDS-PAGE electrophoresis on Novex 4–12% Bis–Tris gels. Proteins were electrophoretically transferred onto nitrocellulose membranes (Amersham Protran 0.45 μm NC; GE Healthcare) at 80 V for 80 min on ice in transfer buffer. Transferred membranes were blocked with 5% (w/v) nonfat dry milk dissolved in TBS-T [20 mM Tris/HCl, pH 7.5, 150 mM NaCl, and 0.1% (v/v) Tween 20] at RT for 30 min, before incubation with the primary antibody overnight at 4 °C. The signal was produced with near-infrared secondary antibodies and detected using a Licor Biosciences Odyssey System, and the signal was quantified in Image Studio Lite.

[6] = 0.3 μM SGK3-PROTAC1, 1 μM 14H, 1 μM 308-R
[7] = in the presence of 3 μM AZD5363, 0.3 μM SGK3-PROTAC1, 1 μM 14H, 1 μM 308-R
[8] = 0.1 μM, 3 μM AZD5363 1 h before lysis

Chain of MLK3 (Q16584 whole entry): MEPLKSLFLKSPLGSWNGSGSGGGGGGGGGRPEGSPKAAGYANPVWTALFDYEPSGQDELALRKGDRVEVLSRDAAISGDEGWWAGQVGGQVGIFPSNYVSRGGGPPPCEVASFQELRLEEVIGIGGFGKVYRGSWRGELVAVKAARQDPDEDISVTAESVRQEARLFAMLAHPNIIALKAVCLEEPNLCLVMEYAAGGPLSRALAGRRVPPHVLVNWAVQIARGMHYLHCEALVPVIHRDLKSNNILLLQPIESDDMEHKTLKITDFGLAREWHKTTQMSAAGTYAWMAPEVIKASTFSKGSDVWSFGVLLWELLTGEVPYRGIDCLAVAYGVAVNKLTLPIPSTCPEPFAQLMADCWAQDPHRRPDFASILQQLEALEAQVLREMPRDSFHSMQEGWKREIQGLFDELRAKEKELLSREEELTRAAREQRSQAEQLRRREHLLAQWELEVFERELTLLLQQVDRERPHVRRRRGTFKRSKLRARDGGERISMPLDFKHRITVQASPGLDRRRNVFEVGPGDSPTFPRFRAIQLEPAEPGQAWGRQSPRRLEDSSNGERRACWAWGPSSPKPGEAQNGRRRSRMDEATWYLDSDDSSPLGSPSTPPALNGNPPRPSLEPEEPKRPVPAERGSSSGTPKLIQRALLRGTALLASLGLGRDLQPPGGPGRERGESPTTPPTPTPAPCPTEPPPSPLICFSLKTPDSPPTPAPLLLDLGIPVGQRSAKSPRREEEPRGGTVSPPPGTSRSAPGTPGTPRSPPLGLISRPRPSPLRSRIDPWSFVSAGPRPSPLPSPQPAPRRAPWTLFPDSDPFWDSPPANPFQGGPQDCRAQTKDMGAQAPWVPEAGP
Chain of S6K1 (P23443 1-421 T412E limits assumed): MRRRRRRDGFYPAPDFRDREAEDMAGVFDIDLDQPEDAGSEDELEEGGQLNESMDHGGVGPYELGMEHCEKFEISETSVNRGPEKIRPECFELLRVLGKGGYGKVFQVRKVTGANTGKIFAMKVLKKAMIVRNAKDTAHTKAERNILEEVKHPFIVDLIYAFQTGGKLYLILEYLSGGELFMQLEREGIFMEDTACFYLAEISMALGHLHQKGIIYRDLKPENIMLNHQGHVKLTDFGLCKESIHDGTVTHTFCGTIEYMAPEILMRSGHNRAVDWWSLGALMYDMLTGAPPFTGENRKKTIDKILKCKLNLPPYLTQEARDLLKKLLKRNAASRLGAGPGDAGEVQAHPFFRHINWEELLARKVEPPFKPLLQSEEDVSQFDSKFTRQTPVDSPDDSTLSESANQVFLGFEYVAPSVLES

Structure (SMILES) | IC50 [1] | IC50 [2] | IC50 [3] | remaining activity at 1 µM [4] | pNDRG1 phosphorylation [5, 6] | NDRG1 phosphorylation [5, 7] | increase of IC50 against S6K1 relative to DAT1 ([1]; 0.16 μM to 1.8 μM) | remaining activity at 1 µM ([4]; 1 µM) | NDRG1 phosphorylation [5, 8] | concentration required to lower NDRG1 phosphorylation ([5]; 3 μM AZD5363 1 h before lysis)
COc1ccc(Cl)c(S(=O)(=O)Nc2ccc(-c3nc(OC[C@H]4CNCCO4)c4c(C)n[nH]c4n3)cc2)c1 [290-R, reference compound] | 10 nM | 35 nM | 19 nM | 10% | – | – | – | – | – | –
Cc1ccc(F)c(S(=O)(=O)Nc2ccc(-c3nc(OC[C@H]4CNCCO4)c4cn[nH]c4n3)cc2)c1 [308-R, reference compound] | 1 nM | 5 nM | – | 24% | minimal effect | markedly suppressed | – | – | – | –
Cc1ccc(F)c(S(=O)(=O)Nc2ccc(-c3nc(OC[C@H]4CN(CCCCCCOCCOCCOCC(=O)N[C@H](C(=O)N5C[C@H](O)C[C@H]5C(=O)NCc5ccc(-c6scnc6C)cc5)C(C)(C)C)CCO4)c4cn[nH]c4n3)cc2)c1 [SGK3-PROTAC1] | 1800 nM | – | 220 nM | – | minimal effect | markedly suppressed | approximately 10 fold | 71% | reduced NDRG1 phosphorylation | –
Cc1ccc(F)c(S(=O)(=O)Nc2ccc(-c3nc(OC[C@H]4CN(CCCCCCOCCOCCOCC(=O)N[C@H](C(=O)N5C[C@@H](O)C[C@H]5C(=O)NCc5ccc(-c6scnc6C)cc5)C(C)(C)C)CCO4)c4cn[nH]c4n3)cc2)c1 [cisSGK3-PROTAC1] | 1700 nM | – | 1400 nM | – | – | – | – | 76% | no effect | above 1 μM

Now from value to molecule, other results behind:

IC50 [1] | IC50 [2] | IC50 [3] | Structure (SMILES) | remaining activity at 1 µM [4] | pNDRG1 phosphorylation [5, 6] | NDRG1 phosphorylation [5, 7] | increase of IC50 against S6K1 relative to DAT1 ([1]; 0.16 μM to 1.8 μM) | remaining activity at 1 µM ([4]; 1 µM) | NDRG1 phosphorylation [5, 8] | concentration required to lower NDRG1 phosphorylation ([5]; 3 μM AZD5363 1 h before lysis)
160 nM | 440 nM | 1600 nM | Cc1ccc(F)c(S(=O)(=O)Nc2ccc(-c3nc(OC[C@H]4CN(CCOCCOCCOCC(=O)N[C@H](C(=O)N5C[C@H](O)C[C@H]5C(=O)NCc5ccc(-c6scnc6C)cc5)C(C)(C)C)CCO4)c4cn[nH]c4n3)cc2)c1 [DAT1] | – | – | – | – | – | – | –
> 10000 nM | > 10000 nM | > 10000 nM | Cc1ccc(F)c(S(=O)(=O)Nc2ccc(-c3nc(OC[C@H]4CN(CCOCCOCC(=O)N[C@H](C(=O)N5C[C@H](O)C[C@H]5C(=O)NCc5ccc(-c6scnc6C)cc5)C(C)(C)C)CCO4)c4cn[nH]c4n3)cc2)c1 [DAT5] | – | – | – | – | – | – | –
> 10000 nM | > 10000 nM | > 10000 nM | Cc1ccc(F)c(S(=O)(=O)Nc2ccc(-c3nc(OC[C@H]4CN(CCOCCOCCOCCOCC(=O)N[C@H](C(=O)N5C[C@H](O)C[C@H]5C(=O)NCc5ccc(-c6scnc6C)cc5)C(C)(C)C)CCO4)c4cn[nH]c4n3)cc2)c1 [DAT6] | – | – | – | – | – | – | –
> 10000 nM | > 10000 nM | > 10000 nM | Cc1ccc(F)c(S(=O)(=O)Nc2ccc(-c3nc(OC[C@H]4CN(CCOCCOCCOCCOCCOCC(=O)N[C@H](C(=O)N5C[C@H](O)C[C@H]5C(=O)NCc5ccc(-c6scnc6C)cc5)C(C)(C)C)CCO4)c4cn[nH]c4n3)cc2)c1 [DAT7] | – | – | – | – | – | – | –
> 10000 nM | > 10000 nM | > 10000 nM | Cc1ccc(F)c(S(=O)(=O)Nc2ccc(-c3nc(OC[C@H]4CN(CCCCCCOCCCCCCOCC(=O)N[C@H](C(=O)N5C[C@H](O)C[C@H]5C(=O)NCc5ccc(-c6scnc6C)cc5)C(C)(C)C)CCO4)c4cn[nH]c4n3)cc2)c1 [DAT10] | – | – | – | – | – | – | –
1800 nM | 730 nM | 1340 nM | COc1ccc(Cl)c(S(=O)(=O)Nc2ccc(-c3nc(OC[C@H]4CN(CCCCCCOCCOCCOCCOCC(=O)N[C@H](C(=O)N5C[C@H](O)C[C@H]5C(=O)NCc5ccc(-c6scnc6C)cc5)C(C)(C)C)CCO4)c4c(C)n[nH]c4n3)cc2)c1 [DAT11] | – | – | – | – | – | – | –
